# Experimental data reported in patent US5688771A, “Lipophilic oligopeptides with immunomodulating activity” (priority 1993, dated 1997).
# Several values for one entry are separate records, joined by “and”; a condition that tells them apart may be missing. Equal values may be shown once. Entries after “also recorded” stand apart in the source; their conditions may differ. Read-outs that look alike come from different tables or passages of the source.
# Tests used:
# [1] = test system: antibody producing cells (SRBC antigen); experiment: Plaque forming assay (PFC) in spleen cells of SRBC-immunized mice; assay type: in vivo
# [2] = test system: IgM antibody against SRBC antigen; experiment: Enzyme immunoassay of IgM antibody in blood of SRBC-immunized mice; assay type: in vivo; details: Experiment 7, 10 mg/kg i.p.
# Protocol: Outbred CD1 mice were immunized with 0.1% volume for volume sheep red blood cell antigen suspended in saline. The mice were injected intraperitoneally with 0.5 ml, suspension of approximately 2×10^7 cells.
# The mice were injected shortly thereafter with a suspension of an immunomodulator of the invention. The immunomodulator dose was a 0.23 ml of a 1 mg/ml suspension in phosphate buffered saline. The injected dose was 10 mg/kg. The second injection was also intraperitoneal.
# The mice were killed five days after injections. Blood samples were taken for analysis of immunoglobulin. The determination was made by enzyme immunoassay using an anti μ-horseradish peroxidase conjugate. The spleen was removed, transferred to a petri dish containing 2 ml of Hank's balanced salt solution and 10 mMolar Hepes buffer (HBSS-HEPES). The spleen was gently crushed by the use of forceps, and the cell suspension was filtered through cotton gauze to eliminate cellular debris. The filtered suspension was brought to volume (5 ml) by the addition of HBSS-HEPES, the cells counted, and the suspension diluted to a final concentration of 5×10^6 cells/ml.
# [3] = test system: Total T and B cells in splenocytes; experiment: Splenic T and B cell enumeration by FACS; assay type: in vivo, C57BL/6 mice
# Excerpt: Splenic cells were enumerated with the following assay. Dispersed splenocytes were reacted with fluorescein isothiocyanate-labelled murine monoclonal antibody anti-Ly5 for B cell enumeration and phycoerythrin-labelled monoclonal antibody anti-Thy 1.2 for T cell counts. The labelled cells were then enumerated with a fluorescence-activated cell sorter (FACS) (EPICS-C, Coulter Corp., Hialeah, Fla.).
# [4] = test system: YAC-1 tumor cells; assay type: in vivo, BALB/c mice; details: for Mean percent chromium release (2SE), Effector:Target 25:1 / Mean percent chromium release (2SE), Effector:Target 50:1 / Mean percent chromium release (2SE), Effector:Target 100:1: ip, Hydrochloride
# [5] = test system: Macrophage activation (IL-1 concentration); design: species or system BALB/c mice; details: mouse, in vivo, Hydrochloride
# [6] = test system: murinecytomegalovirus (MCMV) (Smith strain); experiment: Mortality in MCMV-infected mice; assay type: in vivo, Swiss Webster female mice; details: for Survivors (%) / Survivors/total / Mean day to death: MCMV-infected mice; for Survivors (%) / Survivors/total: 21 days; for Mean day to death: of mice that died on or before day 21
# [7] = test system: murinecytomegalovirus (MCMV) (Smith strain); experiment: MCMV titers in tissues; assay type: in vivo, Swiss Webster female mice
# [8] = Toxicity controls: mortality and weight gain in uninfected mice; assay type: in vivo; details: uninfected mice; for Mean Weight Gain: start of treatment to 24 hours after final treatment
# Protocol: Groups of 5 uninfected mice were treated the same way and at the same times as described above. These animal were checked daily for survival. Their weigths were taken before the first treatment and 24 hours after the last treatment to determine drug effect on weight gain.
# [9] = test system: YAC-1 tumor cells; experiment: Natural killer cell activity, 4 hr chromium release assay
# Protocol: (§1) Mice were administered a 50 mg/kg dose of the immunomodulators of the invention and were subsequently sacrificed. The spleens were harvested and splenocytes isolated. Immunologic assays were conducted on those splenocytes that were taken 24 hours after final treatment. These cells were subjected to tests to determine macrophage and natural killer (NK) cell function.
# Three week-old C57 BL/6 mice were procured and quarantined for 24 to 48 hours prior to treatment. The five oligopeptides described in tables 2, 3 and 4 were admixed with a 0.4% water solution of carboxymethylcellulose. The solutions were stored at 4° C. until use. Ribavarin (1-β-D-ribofuranosyl-1,2,4-triazole-carboxamide) was used in each subsequent experiment as a control.
# (§2) Animals were treated with a 50 mg/kg/day dosage of one of the tested compound and were killed 24 hr after the final treatment and their spleens removed. […] Red blood cells were removed by haemolytic lysis.
# Natural killer (NK) activity of murine cells was determined by testing splenic cells for their ability to lyse YAC-1 tumor cells in a conventional 4 hr chromium release assay as an indicator of NK was expressed as: % chromium release=(experimental counts per minute (cpm)-background cpm)/(maximum cpm-background cpm)
# [10] = test system: Macrophage function (IL-1 activity in splenocytes); experiment: Macrophage function, IL-1 activity in splenocytes by [3H]thymidine uptake in PHA-stimulated thymocytes
# Protocol: as §1
# Ribavarin (1-β-D-ribofuranosyl-1,2,4-triazole-carboxamide) was used in each subsequent experiment as a control.
# as §2
# Macrophage function was assessed by an interleukin-1 (IL-1) assay that utilizes responsiveness of mouse thymocytes to phytohemagglutin (PHA) which is dependent on IL-1 for its reactivity.
# The cells were incubated 72 hr at 37° C. During the last 4 hr of the incubation, the cells were pulsed with [^3 H] thymidine (1 μCi/well). The cells were then harvested and [H^3 ] thymidine incorporation was determined using a direct counter.
# [11] = 50 mg/kg, splenocytes, Hydrochloride
# [12] = 50 mg/kg i.p. days -1,+1,+3,+5,+7
# [13] = 100 mg/kg i.p. days -1,+1,+3,+5,+7
# [14] = 200 mg/kg i.p. days -1,+1,+3,+5,+7
# [15] = prophylactic treatment, three doses 50-200 mg/kg i.p., Hydrochloride
# [16] = 50 mg/kg/day i.p. every other day for 4 injections, splenocytes 24 hr after final treatment, n = 5
# [17] = 50 mg/kg, splenocytes 24 hours after final treatment, Hydrochloride
compound,measurement,setting,value
"CCCCCCCCCCCCCCCCCCN[C@H](C)C(=O)N[C@@H](CCC(N)=O)C(=O)O.Cl [BCH-527, Octadecyl D-Alanyl L-Glutamine Hydrochloride]","Plaque Assay, PFC relative to control (100%)","[1]; Experiment 7, mice, 10 mg/kg i.p.",6843%
same,"Plaque Assay, PFC per 10^6 spleen cells","[1]; Experiment 7, mice, 10 mg/kg i.p., five days after injections",479 ± 322 PFC per 10^6 spleen cells
same,Immunomodulating activity (in words),"[1]; plaque-forming assay, Table 1",immunostimulants
same,"Enzyme Immunoassay, IgM antibody relative to control (100%)",[2],523%
same,"% Cells/Spleen ± SD, B Cells","[3]; 50 mg/kg/day i.p. every other day for 4 injections, anti-Ly5, n = 5",43 ± 1.5%
same,"% Cells/Spleen ± SD, T Cells","[3]; 50 mg/kg/day i.p. every other day for 4 injections, anti-Thy 1.2, n = 5",39 ± 2.3%
same,Effect on B cell counts (in words),[3]; [11],increase % B cells; also recorded: increased B cell counts
same,Effect on T cell counts (in words),[3]; [11],suppressing T cells; also recorded: suppressed T cell counts
same,Effect on NK cells (in words),"[4]; after 4 injections at 100 and 50 mg/kg/day, […]",strong activation of NK cells
same,Effect on natural killer cells activity (in words),"[4]; mouse, in vivo",stimulated the natural killer cells activity
same,"Mean percent chromium release (2SE), Effector:Target 25:1","[4]; mouse, in vivo, 50 mg/kg/day",10.8(1.3) percent and 12.7(0.4) percent and 14.8(0.9) percent
same,"Mean percent chromium release (2SE), Effector:Target 50:1","[4]; mouse, in vivo, 50 mg/kg/day",17.6(1.1) percent and 17.1(0.6) percent and 18.5(1.0) percent
same,"Mean percent chromium release (2SE), Effector:Target 100:1","[4]; mouse, in vivo, 50 mg/kg/day",21.2(2.9) percent and 23.3(1.0) percent and 23.9(1.1) percent
same,"Mean percent chromium release (2SE), Effector:Target 25:1","[4]; mouse, in vivo, 100 mg/kg/day",10.6(1.8) percent and 11.8(1.7) percent and 16.9(1.3) percent
same,"Mean percent chromium release (2SE), Effector:Target 50:1","[4]; mouse, in vivo, 100 mg/kg/day",16.6(1.9) percent and 16.4(1.8) percent and 20.8(1.4) percent
same,"Mean percent chromium release (2SE), Effector:Target 100:1","[4]; mouse, in vivo, 100 mg/kg/day",20.0(2.0) percent and 22.3(2.0) percent and 26.5(1.6) percent
same,"Mean percent chromium release (2SE), Effector:Target 25:1","[4]; mouse, in vivo, 200 mg/kg/day",11.3(0.6) percent and 8.6(0.6) percent and 9.6(0.9) percent
same,"Mean percent chromium release (2SE), Effector:Target 50:1","[4]; mouse, in vivo, 200 mg/kg/day",17.3(1.4) percent and 12.8(0.7) percent and 12.9(0.9) percent
same,"Mean percent chromium release (2SE), Effector:Target 100:1","[4]; mouse, in vivo, 200 mg/kg/day",20.4(2.4) percent and 18.2(1.0) percent and 17.6(1.1) percent
same,IL-1 Conc. (2SE),[5]; 200 mg/kg/day,16.6(3.7) μg/ml and 31.4(3.4) μg/ml and 29.1(7.4) μg/ml
same,Effect on macrophage activation (in words),[5],significant macrophage activator; also recorded: macrophage stimulation
same,Survivors (%),[6]; [12],90%
same,Survivors/total,[6]; [12],9/10
same,Mean day to death,[6]; 50 mg/kg i.p.,4.0 ± 0.0 days
same,Survivors (%),[6]; [13],78%
same,Survivors/total,[6]; [13],7/9
same,Mean day to death,[6]; 100 mg/kg i.p.,10.5 ± 6.3 days
same,Survivors (%),[6]; [14],100%
same,Survivors/total,[6]; [14],10/10
same,Mean day to death,[6]; 200 mg/kg i.p.,> 21 days
same,Effect on death in CMV-challenged mice (in words),[6]; [15],prevented death; also recorded: preventing death
same,Virus titer in Liver,"[7]; Day 3, 50 mg/kg",3.1±0.7 Log10 CCID50/qram
same,Virus titer in Lung,"[7]; Day 3, 50 mg/kg",< 2.5±0.0 Log10 CCID50/qram
same,Virus titer in spleen,"[7]; Day 3, 50 mg/kg",6.1±0.6 Log10 CCID50/qram
same,Virus titer in Liver,"[7]; Day 3, 100 mg/kg",2.9±0.7 Log10 CCID50/qram
same,Virus titer in Lung,"[7]; Day 3, 100 mg/kg",< 2.5±0.0 Log10 CCID50/qram
same,Virus titer in salivary gland,"[7]; Day 3, 100 mg/kg",3.0±0.4 Log10 CCID50/qram
same,Virus titer in spleen,"[7]; Day 3, 100 mg/kg",4.7±1.6 Log10 CCID50/qram
same,Virus titer in Liver,"[7]; Day 3, 200 mg/kg",2.9±0.4 Log10 CCID50/qram
same,Virus titer in Lung,"[7]; Day 3, 200 mg/kg",< 2.5±0.0 Log10 CCID50/qram
same,Virus titer in salivary gland,"[7]; Day 3, 200 mg/kg",< 2.5±0.0 Log10 CCID50/qram
same,Virus titer in spleen,"[7]; Day 3, 200 mg/kg",5.3±0.4 Log10 CCID50/qram
same,Virus titer in Liver,"[7]; Day 6, 50 mg/kg",3.1±1.1 Log10 CCID50/qram
same,Virus titer in Lung,"[7]; Day 6, 50 mg/kg",3.4±0.6 Log10 CCID50/qram
same,Virus titer in spleen,"[7]; Day 6, 50 mg/kg",4.3±1.2 Log10 CCID50/qram
same,Virus titer in Liver,"[7]; Day 6, 100 mg/kg",< 2.5±0.0 Log10 CCID50/qram
same,Virus titer in Lung,"[7]; Day 6, 100 mg/kg",3.9±0.8 Log10 CCID50/qram
same,Virus titer in salivary gland,"[7]; Day 6, 100 mg/kg",2.8±0.3 Log10 CCID50/qram
same,Virus titer in spleen,"[7]; Day 6, 100 mg/kg",4.9±0.6 Log10 CCID50/qram
same,Virus titer in Liver,"[7]; Day 6, 200 mg/kg",< 2.5±0.0 Log10 CCID50/qram
same,Virus titer in Lung,"[7]; Day 6, 200 mg/kg",3.1±0.4 Log10 CCID50/qram
same,Virus titer in salivary gland,"[7]; Day 6, 200 mg/kg",3.5±0.7 Log10 CCID50/qram
same,Virus titer in spleen,"[7]; Day 6, 200 mg/kg",3.7±0.7 Log10 CCID50/qram
same,Effect on tissue virus titres (in words),[7]; [15],reduced MCMV tissue virus titres; also recorded: reducing tissue virus titres
same,Survivors (%),[8]; 50 mg/kg,100%
same,Survivors/total,[8]; 50 mg/kg,5/5
same,Mean Weight Gain,[8]; 50 mg/kg,8.4 gm
same,Survivors (%),[8]; 100 mg/kg,100%
same,Survivors/total,[8]; 100 mg/kg,5/5
same,Mean Weight Gain,[8]; 100 mg/kg,9.0 gm
same,Survivors (%),[8]; 200 mg/kg,100%
same,Survivors/total,[8]; 200 mg/kg,5/5
same,Mean Weight Gain,[8]; 200 mg/kg,6.9 gm
same,"% Chromium Release ± SD, Effector:Target Ratio 25:1",[9]; [16],13.9 ± 2.0%
same,"% Chromium Release ± SD, Effector:Target Ratio 50:1",[9]; [16],24.0 ± 1.7%
same,Effect on natural killer (NK) cell activity (in words),[9]; [17],significantly stimulate; also recorded: stimulated
same,Mean CPM of Treated Thymocytes ± SD,[10]; [16],5660 ± 1011 CPM
same,Effect on macrophage function (in words),[10]; [17],somewhat stimulatory; also recorded: macrophage stimulation
